For assay [1], the target named is T1, human β-N-acetylhexosaminidase B (HsHexB) (Homo sapiens, UniProt P07686).
T1 construct: made in house; host or cells: Pichia pastoris
T1 sequence (P07686 122-556): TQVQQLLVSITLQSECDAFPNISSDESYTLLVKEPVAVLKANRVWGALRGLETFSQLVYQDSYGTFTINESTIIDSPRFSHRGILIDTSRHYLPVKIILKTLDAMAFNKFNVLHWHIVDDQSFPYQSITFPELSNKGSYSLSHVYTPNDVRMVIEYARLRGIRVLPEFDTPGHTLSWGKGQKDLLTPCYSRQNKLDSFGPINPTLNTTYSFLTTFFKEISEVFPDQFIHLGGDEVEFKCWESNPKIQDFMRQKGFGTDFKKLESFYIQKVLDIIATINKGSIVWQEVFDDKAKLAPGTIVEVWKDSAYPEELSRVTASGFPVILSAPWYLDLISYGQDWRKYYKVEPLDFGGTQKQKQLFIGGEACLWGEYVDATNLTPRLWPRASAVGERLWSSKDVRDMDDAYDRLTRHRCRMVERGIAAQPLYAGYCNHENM
In words: Enzyme inhibitory activity test against HsHexB (4-MU-GlcNAc substrate, end-point fluorescence; Dixon plots for Ki). The class given is biochemical. The following applies: pH 4.5; for inhibition at 100 µM: 100 μM inhibitor, 40 μM 4-MU-GlcNAc, 30°C, 30 min, read-out: Inhibition rate at 100 μM (%) HsHexB; for Ki: Dixon plots, 4-MU-GlcNAc 40, 20, 10 μM. As for the experimental part: (§1) Human O-GlcNAcase (hOGA) was expressed in Escherichia coli BL21(DE3) and purified according to previous methods (Kong et al., [2016]). Human β-N-acetylhexosaminidase B (HsHexB) was overexpressed in Pichia pastoris and then purified as described previously (Shen et al., [2018a]).
(§2) All target compounds were evaluated for their inhibitory activities against hOGA and HsHexB in end-point experiments. 4-Methylumbelliferyl N-acetyl-β-D-glucosaminide (4-MU-GlcNAc) was used as substrate. In a final assay volume of 100 μL, inhibitor and substrate (40 μM) were mixed with Britton-Robinson buffer (hOGA, pH 6.5; HsHexB, pH 4.5) and enzyme; then, the assay components were incubated at 30°C for 30 min. Subsequently, the enzymatic reaction was terminated by the addition of 100 μL 0.5 M Na2CO3 solution. The fluorescence of the liberated 4-methylumbelliferone (Mu) was quantified at an excitation of 366 nm and emission of 445 nm on a Varioskan Flash microplate reader (Thermo Fisher Scientific, USA). To determine the inhibition constant (Ki), Dixon plots were performed by changing the concentration of the 4-MU-GlcNAc (40, 20, and 10 μM).

Another assay concerns the target T2, human O-GlcNAcase (hOGA) (Homo sapiens, UniProt O60502).
T2 construct: made in house; host or cells: Escherichia coli BL21(DE3)
T2 sequence (O60502 1-916): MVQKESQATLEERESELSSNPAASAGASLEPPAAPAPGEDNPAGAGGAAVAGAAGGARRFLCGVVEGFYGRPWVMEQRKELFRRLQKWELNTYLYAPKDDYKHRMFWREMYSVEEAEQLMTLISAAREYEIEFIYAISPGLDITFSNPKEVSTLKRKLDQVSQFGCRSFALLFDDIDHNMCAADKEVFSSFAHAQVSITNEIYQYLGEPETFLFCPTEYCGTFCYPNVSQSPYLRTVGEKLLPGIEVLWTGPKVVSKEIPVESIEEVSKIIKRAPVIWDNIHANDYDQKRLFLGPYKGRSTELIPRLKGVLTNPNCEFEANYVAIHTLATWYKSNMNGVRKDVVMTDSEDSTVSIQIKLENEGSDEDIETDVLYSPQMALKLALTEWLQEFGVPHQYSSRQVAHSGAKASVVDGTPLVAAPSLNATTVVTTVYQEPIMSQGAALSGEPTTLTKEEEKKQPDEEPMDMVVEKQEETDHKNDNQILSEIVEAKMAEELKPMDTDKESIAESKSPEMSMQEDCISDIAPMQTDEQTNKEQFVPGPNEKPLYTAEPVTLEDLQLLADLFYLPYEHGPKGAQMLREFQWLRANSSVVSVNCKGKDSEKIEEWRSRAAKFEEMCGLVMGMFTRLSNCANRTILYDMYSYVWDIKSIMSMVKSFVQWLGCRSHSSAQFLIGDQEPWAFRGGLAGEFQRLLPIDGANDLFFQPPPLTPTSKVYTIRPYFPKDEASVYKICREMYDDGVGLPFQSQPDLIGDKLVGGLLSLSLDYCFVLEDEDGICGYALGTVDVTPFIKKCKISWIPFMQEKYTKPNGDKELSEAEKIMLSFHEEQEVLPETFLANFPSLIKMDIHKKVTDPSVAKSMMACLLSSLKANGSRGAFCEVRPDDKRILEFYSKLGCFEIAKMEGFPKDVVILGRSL
In words: Enzyme inhibitory activity test against hOGA (4-MU-GlcNAc substrate, end-point fluorescence; Dixon plots for Ki). The class given is biochemical. Conditions: for inhibition at 100 µM: 100 μM inhibitor, 40 μM 4-MU-GlcNAc, 30°C, 30 min, read-out: Inhibition rate at 100 μM (%) hOGA; for inhibition at 100 µM / Ki: pH 6.5; for Ki: Dixon plots, 4-MU-GlcNAc 40, 20, 10 μM; for decrease in inhibitory activity against hOGA: NHC2H5 (17a or 17d) compared to NHCH3 (16h or 17c). As for the experimental part: as §1, §2

Consider 19 compounds from paper PMC6669961, “Design and Optimization of Thioglycosyl–naphthalimides as Efficient Inhibitors Against Human O-GlcNAcase” (Frontiers in Chemistry, 2019).

The inhibition is how much of the control response was suppressed. One may read the Ki as a dissociation constant, usually derived from enzyme kinetics or from competition with a known ligand.

On to `COc1ccc2c3c(cccc13)C(=O)N(CCCNC(=O)CS[C@@H]1O[C@H](CO)[C@@H](O)[C@H](O)[C@H]1NC(C)=O)C2=O` [Compound 10b], for which the inhibition at 100 µM in assay [1] was determined as 49.2 ± 1.4%; at human O-GlcNAcase (hOGA) it was 90.6 ± 0.5%. Moreover, the results for the Ki (in assay [1]; at human O-GlcNAcase (hOGA)) were > 100 µM and 4.43 ± 0.21 µM, respectively.
The corresponding values for `O=C(CS[C@@H]1O[C@H](CO)[C@@H](O)[C@H](O)[C@H]1NC(=O)c1ccc(F)cc1)NCCCN1C(=O)c2cccc3c(Br)ccc(c23)C1=O` [Compound 16k] are 48.5 ± 1.7%, 48 ± 0.9%, > 100 µM and > 100 µM.
`CC(=O)N[C@@H]1[C@@H](O)[C@H](O)[C@@H](CO)O[C@H]1SCC(=O)NCCCN1C(=O)c2cccc3c(N(C)C)ccc(c23)C1=O` [Compound 10c]: in assay [1], the inhibition at 100 µM was found to be 36.9 ± 0.2% and the Ki is > 100 µM. Further, at human O-GlcNAcase (hOGA), the inhibition at 100 µM was 84.4 ± 1.7% and the Ki was determined as 9.72 ± 0.49 µM.
The corresponding values for `O=C(CS[C@@H]1O[C@H](CO)[C@@H](O)[C@H](O)[C@H]1NC(=O)C(F)(F)F)NCCCN1C(=O)c2cccc3c(Br)ccc(c23)C1=O` [Compound 16o] are 37.7 ± 0.9%, > 100 µM, 90.9 ± 0.2% and 4.62 ± 0.18 µM.
The corresponding values for `CCC(=O)N[C@@H]1[C@@H](O)[C@H](O)[C@@H](CO)O[C@H]1SCC(=O)NCCCN1C(=O)c2cccc3c(Br)ccc(c23)C1=O` [Compound 16l] are 41.8 ± 1%, > 100 µM, 97.7 ± 2.2% and 0.72 ± 0.01 µM.
Take `CCCC(=O)N[C@@H]1[C@@H](O)[C@H](O)[C@@H](CO)O[C@H]1SCC(=O)NCCCN1C(=O)c2cccc3c(N4CCCCC4)ccc(c23)C1=O` [Compound 16e]: in assay [1], the inhibition at 100 µM came to 24.6 ± 1.5% and the Ki was > 100 µM. On human O-GlcNAcase (hOGA), the inhibition at 100 µM came out at 78.9 ± 1.9% and the Ki turned out to be 12.8 ± 0.27 µM.
The corresponding values for `CC(C)C(=O)N[C@@H]1[C@@H](O)[C@H](O)[C@@H](CO)O[C@H]1SCC(=O)NCCCN1C(=O)c2cccc3c(Br)ccc(c23)C1=O` [Compound 16n] are 37 ± 0.4%, > 100 µM, 87.8 ± 0.4% and 6.92 ± 0.1 µM.
For `CNC(=O)N[C@@H]1[C@@H](O)[C@H](O)[C@@H](CO)O[C@H]1SCC(=O)NCCCN1C(=O)c2cccc3c(N4CCCCC4)ccc(c23)C1=O` [Compound 16h], in assay [1], the inhibition at 100 µM was determined as 25.2 ± 0.3% and the Ki was > 100 µM. On human O-GlcNAcase (hOGA), the inhibition at 100 µM is 85.5 ± 1.5% and the Ki turned out to be 6.6 ± 0.22 µM. The “potency against hOGA reduced” value on human O-GlcNAcase (hOGA) (16h (NHCH3) compared to 16d (CH2CH3)) was “about 4 fold”.
In the case of `CC(C)C(=O)N[C@@H]1[C@@H](O)[C@H](O)[C@@H](CO)O[C@H]1SCC(=O)NCCCN1C(=O)c2cccc3c(N4CCCCC4)ccc(c23)C1=O` [Compound 16f], the inhibition at 100 µM was found to be 21.4 ± 0.5% in assay [1] and 72.2 ± 0.3% at human O-GlcNAcase (hOGA). Besides, the Ki in assay [1] was > 100 µM; on human O-GlcNAcase (hOGA), 23.6 ± 0.43 µM.
As for `CCNC(=O)N[C@@H]1[C@@H](O)[C@H](O)[C@@H](CO)O[C@H]1SCC(=O)NCCCN1C(=O)c2cccc3c(N4CCCCC4)ccc(c23)C1=O` [Compound 17a], in assay [1], the inhibition at 100 µM came out at 25.9 ± 0.3% and the Ki was > 100 µM. Also, on human O-GlcNAcase (hOGA), the inhibition at 100 µM was 68.6 ± 0.8%, the Ki is 12 ± 0.3 µM and the “decrease in inhibitory activity against hOGA” value is recorded as 2 to 3 fold.
For `O=C(CS[C@@H]1O[C@H](CO)[C@@H](O)[C@H](O)[C@H]1NC(=O)c1ccc(F)cc1)NCCCN1C(=O)c2cccc3c(N4CCCCC4)ccc(c23)C1=O` [Compound 16b], the inhibition at 100 µM in assay [1] worked out at 15.8 ± 0.4%; at human O-GlcNAcase (hOGA) it was 50.9 ± 0.8%. Further, the Ki (in assay [1]; on human O-GlcNAcase (hOGA)) was > 100 µM throughout.
For the compound `CCNC(=O)N[C@@H]1[C@@H](O)[C@H](O)[C@@H](CO)O[C@H]1SCC(=O)NCCCN1C(=O)c2cccc3c(Br)ccc(c23)C1=O` [Compound 17d], in assay [1], the inhibition at 100 µM amounted to 26.3 ± 1.1% and the Ki was > 100 µM. For the same compound, on human O-GlcNAcase (hOGA), the inhibition at 100 µM came out at 83.5 ± 0.9%, the Ki came out at 7.11 ± 0.01 µM and the “decrease in inhibitory activity against hOGA” value fell in the range of 2 to 3 fold.
For `CC(=O)N[C@@H]1[C@@H](O)[C@H](O)[C@@H](CO)O[C@H]1SCC(=O)NCCCN1C(=O)c2cccc3c(N4CCCCC4)ccc(c23)C1=O` [Compound 10d], in assay [1], the inhibition at 100 µM amounted to 32.8 ± 2.7% and the Ki is > 100 µM. On human O-GlcNAcase (hOGA), the inhibition at 100 µM is 93.1 ± 0.2% and the Ki is 1.42 ± 0.02 µM. In addition, the “decrease in inhibitory potency against hOGA” value on human O-GlcNAcase (hOGA) (10d compared to 10a (Ki)) is recorded as 2.3 fold. The “inhibitory mechanism toward hOGA” value at human O-GlcNAcase (hOGA) (kinetic studies via Dixon plots) was “competitive inhibitors”.
Consider `CCCC(=O)N[C@@H]1[C@@H](O)[C@H](O)[C@@H](CO)O[C@H]1SCC(=O)NCCCN1C(=O)c2cccc3c(Br)ccc(c23)C1=O` [Compound 16m], for which, in assay [1], the inhibition at 100 µM is 39.8 ± 2.3% and the Ki was > 100 µM. On human O-GlcNAcase (hOGA), the inhibition at 100 µM came out at 97.1 ± 1.3% and the Ki is 4.36 ± 0.21 µM.
Consider `CCCNC(=O)N[C@@H]1[C@@H](O)[C@H](O)[C@@H](CO)O[C@H]1SCC(=O)NCCCN1C(=O)c2cccc3c(N4CCCCC4)ccc(c23)C1=O` [Compound 17b], for which, in assay [1], the inhibition at 100 µM was 22.7 ± 0.2% and the Ki is > 100 µM. Moreover, at human O-GlcNAcase (hOGA), the inhibition at 100 µM is 66.3 ± 0.6% and the Ki was determined as 13.83 ± 0.02 µM.
The corresponding values for `O=C(CS[C@@H]1O[C@H](CO)[C@@H](O)[C@H](O)[C@H]1NC(=O)C(F)(F)F)NCCCN1C(=O)c2cccc3c(N4CCCCC4)ccc(c23)C1=O` [Compound 16g] are 6.4 ± 0.7%, > 100 µM, 82.7 ± 1% and 6.37 ± 0.09 µM.
Take `O=C(CS[C@@H]1O[C@H](CO)[C@@H](O)[C@H](O)[C@H]1NC(=O)c1ccccc1)NCCCN1C(=O)c2cccc3c(Br)ccc(c23)C1=O` [Compound 16j]: in assay [1], the inhibition at 100 µM amounted to 49.1 ± 1.4% and the Ki was > 100 µM. Further, on human O-GlcNAcase (hOGA), the inhibition at 100 µM is 41.1 ± 0.6% and the Ki was > 100 µM.
On to `CNC(=O)N[C@@H]1[C@@H](O)[C@H](O)[C@@H](CO)O[C@H]1SCC(=O)NCCCN1C(=O)c2cccc3c(Br)ccc(c23)C1=O` [Compound 17c], for which the inhibition at 100 µM in assay [1] was determined as 40.7 ± 0.7%; at human O-GlcNAcase (hOGA), 96.7 ± 1.6%. Further, the Ki was > 100 µM in assay [1] and 2.17 ± 0.13 µM on human O-GlcNAcase (hOGA).
In the case of `CCC(=O)N[C@@H]1[C@@H](O)[C@H](O)[C@@H](CO)O[C@H]1SCC(=O)NCCCN1C(=O)c2cccc3c(N4CCCCC4)ccc(c23)C1=O` [Compound 16d], the values for the inhibition at 100 µM (in assay [1]; on human O-GlcNAcase (hOGA)) were 28.7 ± 2% and 88 ± 1.5%, respectively. Moreover, the results for the Ki (in assay [1]; at human O-GlcNAcase (hOGA)) were > 100 µM and 1.69 ± 0.05 µM, respectively.
